Data published in patent US20240309015A1, “Methods for the Treatment of Fibrotic Disease” (SHY Therapeutics, LLC, priority 2021, published 2024).

What was measured:
JNK = JNK Activation Assay in PANC-1; format: cell-based, human; parameters: key: Y = yes; N = No; conditions: at 10 μM
Procedure: Cell lines: Human tumor-derived pancreatic cancer cell line Panc-1 and mouse muscle myoblast C2C12 were purchased from American Type Culture Collection and grown in complete DMEM-High Glucose, supplemented with penicillin (100 U/mL), streptomycin (100 μg/mL), and 10% heat-inactivated FBS at 37° C. in a humidified incubator with 5% CO2.
Method: Cells were plated at 350000 cells/well density in a 12-well plate, allowed 3 hours to adhere to the plate, then starved in the appropriate medium in the presence of 0.5% FBS overnight. The small molecules to be tested were added to the cells in the final concentration of 10 μM in the presence of 0.3% DMSO for 3 hours incubation at 37° C. For IC50 value determination, serial dilutions of compounds were added to cells under the same conditions. […] Protein concentration was assessed by BCA protein assay (Thermo Scientific). Phosphorylation level of JNK was determined by western blot.
Western blot protocol: Equal amounts of protein (15-50 μg) were separated by SDS-PAGE and transferred to nitrocellulose membranes (Invitrogen by Thermo Fisher Scientific). […] Membranes were blocked with 10% milk and phosphorylation levels of Smad2, Smad3, JNK and p38 were assessed by incubating overnight at 4° C. with the following antibody: Phospho-SAPK/JNK (Thr183/Tyr185), from Cell Signaling Technology. […]

KRas wild type = test: Ras GTP Binding Domain Inhibition Assay, KRas wild type; conditions: at 20 μM
Procedure, shortened: (§1)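 Compounds were tested at 20 μM final, or as dilution series for IC50, against nickel-plate-captured His-tagged GTPase proteins for 3 h at room temperature. Sos exchange factor could be present for the last hour. Labelled GTP (100 nM Cy3 or Cy5) was then bound for 45 min, wells were washed, and retained fluorescence was measured.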

Rho-A = test: Ras GTP Binding Domain Inhibition Assay, Rho-A; conditions: at 20 μM
Procedure, shortened: as §1

KRas G12D mutant = test: Ras GTP Binding Domain Inhibition Assay, KRas G12D mutant; conditions: at 20 μM; for KRas G12D mutant + SOS: % inh.: with SOS; for KRas G12D mutant: % inh.: without SOS
Procedure, shortened: as §1

Smad2/3 phosphorylation = test: Phospho-Smad2/3 Inhibition Assay in PANC-1; format: cell-based; conditions: Homo sapiens, western blot
Procedure, shortened: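 Serum-starved cells (0.5% FBS overnight) pretreated 3 h at 37 °C with compound at 10 μM or serial dilutions for IC50, in 0.3% DMSO. TGF-b1 10 ng/ml stimulation: 1 h for Panc-1 (human), 20 min for C2C12 (mouse). Phospho-Smad2 (Ser465/467) and phospho-Smad3 (Ser423/425) measured by western blot of lysates.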

With `CO[C@H]1CC[C@@H](Nc2nc(-c3nccn3C)nc3sc(-c4ccn(C)n4)c(-c4ccccc4)c23)C1` (racemic) [Compound 5, rac-N-((1R,3S)-3-Methoxycyclopentyl)-2-(1-methyl-1H-imidazol-2-yl)-6-(1-methyl-1H-pyrazol-3-yl)-5-phenylthieno[2,3-d]pyrimidin-4-amine] the “Activation of JNK in PANC-1” value (JNK) was “Y”, the “KRas wild type + SOS: % inh.” value (KRas wild type; with SOS) was “D (D = 76-100% inhibition)” and the “KRas wild type: % inh.” value (KRas wild type; without SOS) was “B (B = 26-45% inhibition)”. The “Rho-A + SOS: % inh.” value (Rho-A; with SOS) was “D (D = 76-100% inhibition)”, the “Rho-A: % inh.” value (Rho-A; without SOS) was “C (C = 46-75% inhibition)” and the “KRas G12D mutant + SOS: % inh.” value (KRas G12D mutant; Table 7) was “C (C = 46-75% inhibition)”. The “KRas G12D mutant + SOS: % inh.” value (KRas G12D mutant; Table 8) was “C (C = 46-75% inhibition)”, the “KRas G12D mutant: % inh.” value (KRas G12D mutant; Table 7) was “A (A = 1-25% inhibition)” and the “KRas G12D mutant: % inh.” value (KRas G12D mutant; Table 8) was “A (A = 1-25% inhibition)”. The inhibition at 10 µM (Smad2/3 phosphorylation; 10 μM compound, 3 h, TGF-b1 stimulated PANC-1, read-out: % inh of Smad2/3 phosphorylation in PANC-1) was 76 to 100% and the IC50 (Smad2/3 phosphorylation; PANC-1, TGF-b1 stimulated) was 5 to 10 µM.
